Target: Glutamate receptor ionotropic, NMDA 1 (Rattus norvegicus, UniProt P35439)
Experiment: Affinity measured by using [3H]5,7-dichlorokynurenic acid (DCKA) for the glycine binding site of NMDA receptor

Q: Which Ki does the source give for C[C@H]1Cc2cc(Br)cc3[nH]c(=O)c(=O)n(c23)[C@@H]1CC(=O)O here?
A: 3.3 nM

Q: CC(C)[C@H]1Cc2cc(Br)cc3[nH]c(=O)c(=O)n(c23)[C@@H]1CC(=O)O was tested. Which Ki did it give?
A: 8.4 nM

Q: Which Ki does the source give for O=C(C[C@@H]1CCc2cc(Br)cc3[nH]c(=O)c(=O)n1c23)Nc1ccccc1 here?
A: 2.6 nM

Q: How did the Ki turn out when CC(C(=O)Nc1ccccc1)[C@@H]1CCc2cc(Br)cc3[nH]c(=O)c(=O)n1c23 (stereo in doubt; 23b) was run?
A: 665 nM

Q: How did the Ki turn out when C[C@@H]1C[C@@H](CC(=O)O)n2c(=O)c(=O)[nH]c3cc(Br)cc1c32 was run?
A: 38.3 nM

Q: Which Ki does the source give for CC[C@H]1Cc2cc(Br)cc3[nH]c(=O)c(=O)n(c23)[C@@H]1CC(=O)O here?
A: 1.4 nM

Q: How did the Ki turn out when O=C(O)C[C@@H]1CCc2cc(Br)cc3[nH]c(=O)c(=O)n1c23 was run?
A: 9.9 nM

Q: How did the Ki turn out when CC[C@H]1Cc2cc(Br)cc3[nH]c(=O)c(=O)n(c23)[C@@H]1CC(=O)Nc1ccccc1 was run?
A: 3.8 nM

Q: For C[C@H]1Cc2cc(Br)cc3[nH]c(=O)c(=O)n(c23)[C@@H]1CC(=O)Nc1ccccc1, which Ki is on record?
A: 3 nM

Q: With CC(C(=O)O)[C@@H]1CCc2cc(Br)cc3[nH]c(=O)c(=O)n1c23 (stereo in doubt; 23a) as the molecule, how does the Ki read?
A: 241 nM

Q: How did the Ki turn out when C[C@H]1C[C@@H](CC(=O)O)n2c(=O)c(=O)[nH]c3cc(Br)cc1c32 was run?
A: 42 nM

Q: With CC(C(=O)Nc1ccccc1)[C@@H]1CCc2cc(Br)cc3[nH]c(=O)c(=O)n1c23 (stereo in doubt; 24b) as the molecule, how does the Ki read?
A: 590 nM

Q: For C[C@@H]1C[C@@H](CC(=O)Nc2ccccc2)n2c(=O)c(=O)[nH]c3cc(Br)cc1c32, which Ki is on record?
A: 7.4 nM

Q: How did the Ki turn out when C[C@@]1(CC(=O)O)CCc2cc(Br)cc3[nH]c(=O)c(=O)n1c23 was run?
A: 451 nM

Q: Which Ki does the source give for C[C@H]1C[C@@H](CC(=O)Nc2ccccc2)n2c(=O)c(=O)[nH]c3cc(Br)cc1c32 here?
A: 17.1 nM

Q: Which Ki does the source give for C[C@@H]1Cc2cc(Br)cc3[nH]c(=O)c(=O)n(c23)[C@@H]1CC(=O)O here?
A: 29.6 nM

Q: C[C@@H]1Cc2cc(Br)cc3[nH]c(=O)c(=O)n(c23)[C@@H]1CC(=O)Nc1ccccc1 was tested. Which Ki did it give?
A: 21 nM

Q: How did the Ki turn out when C[C@@]1(CC(=O)Nc2ccccc2)CCc2cc(Br)cc3[nH]c(=O)c(=O)n1c23 was run?
A: 760 nM

Q: Which Ki does the source give for CC(C(=O)O)[C@@H]1CCc2cc(Br)cc3[nH]c(=O)c(=O)n1c23 (stereo in doubt; 24a) here?
A: 300 nM

Reference: ChEMBL document CHEMBL1128768, “Structure-activity relationships of tricyclic quinoxalinediones as potent antagonists for the glycine binding site of the NMDA receptor 1” (Bioorg Med Chem Lett, 1995)
